Data published in ChEMBL document CHEMBL5625244, “Synthesis of cannabidiol-based compounds as ACE2 inhibitors with potential application in the treatment of COVID-19” (Eur J Med Chem, 2023).
The source made the active and inactive calls. No cut-off for these calls is given here.

Legend:
[1] = molecular target: T1, Angiotensin-converting enzyme 2 (Homo sapiens, UniProt Q9BYF1); test: Inhibition of human ACE2 using Mca-APK(Dnp) as substrate incubated for 30 mins by fluorometer analysis
Target sequence in this assay (Q9BYF1 whole entry): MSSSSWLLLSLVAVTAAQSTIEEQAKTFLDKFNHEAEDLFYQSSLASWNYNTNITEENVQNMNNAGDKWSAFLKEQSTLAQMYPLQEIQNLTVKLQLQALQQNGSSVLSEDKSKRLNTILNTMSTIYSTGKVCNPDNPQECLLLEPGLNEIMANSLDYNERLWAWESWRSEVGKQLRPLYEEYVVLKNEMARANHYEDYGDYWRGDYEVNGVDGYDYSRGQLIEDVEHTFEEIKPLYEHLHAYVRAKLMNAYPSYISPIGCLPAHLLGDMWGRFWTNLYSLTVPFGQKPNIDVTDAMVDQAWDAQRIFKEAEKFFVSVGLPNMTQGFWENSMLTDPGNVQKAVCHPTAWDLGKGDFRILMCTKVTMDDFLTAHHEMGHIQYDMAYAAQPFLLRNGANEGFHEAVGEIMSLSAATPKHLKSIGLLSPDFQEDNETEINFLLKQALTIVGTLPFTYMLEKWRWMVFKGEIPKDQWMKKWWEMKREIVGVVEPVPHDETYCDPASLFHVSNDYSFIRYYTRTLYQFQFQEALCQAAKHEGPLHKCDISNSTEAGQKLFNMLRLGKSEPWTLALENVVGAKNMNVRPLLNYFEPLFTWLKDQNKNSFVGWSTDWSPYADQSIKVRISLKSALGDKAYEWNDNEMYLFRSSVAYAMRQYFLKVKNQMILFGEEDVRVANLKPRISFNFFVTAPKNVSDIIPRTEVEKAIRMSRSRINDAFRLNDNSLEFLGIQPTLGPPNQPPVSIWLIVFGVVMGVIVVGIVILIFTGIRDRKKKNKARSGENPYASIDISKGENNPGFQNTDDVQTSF

[2] = Cytotoxicity against African green monkey Vero cells assessed as reduction in cell viability upto 100 uM incubated for 48 hrs by Alamar blue assay; format: toxicity, cell-based; conditions: chlorocebus sabaeus
[3] = test system: SARS-CoV-2; test: Antiviral activity against SARS-CoV-2 Wuhan infected in african green monkey Vero cells pre-infected for 1 hr followed by compound addition and measured after 48 hrs by RT-qPCR analysis; format: functional, organism-based; conditions: Severe acute respiratory syndrome coronavirus 2, Wuhan
[4] = molecular target: T1, Angiotensin-converting enzyme 2; test: Inhibition of human ACE2 using Mca-APK(Dnp) as substrate at 10 nM incubated for 30 mins by fluorometer analysis
Target sequence in this assay (Q9BYF1 18-805 limits assumed): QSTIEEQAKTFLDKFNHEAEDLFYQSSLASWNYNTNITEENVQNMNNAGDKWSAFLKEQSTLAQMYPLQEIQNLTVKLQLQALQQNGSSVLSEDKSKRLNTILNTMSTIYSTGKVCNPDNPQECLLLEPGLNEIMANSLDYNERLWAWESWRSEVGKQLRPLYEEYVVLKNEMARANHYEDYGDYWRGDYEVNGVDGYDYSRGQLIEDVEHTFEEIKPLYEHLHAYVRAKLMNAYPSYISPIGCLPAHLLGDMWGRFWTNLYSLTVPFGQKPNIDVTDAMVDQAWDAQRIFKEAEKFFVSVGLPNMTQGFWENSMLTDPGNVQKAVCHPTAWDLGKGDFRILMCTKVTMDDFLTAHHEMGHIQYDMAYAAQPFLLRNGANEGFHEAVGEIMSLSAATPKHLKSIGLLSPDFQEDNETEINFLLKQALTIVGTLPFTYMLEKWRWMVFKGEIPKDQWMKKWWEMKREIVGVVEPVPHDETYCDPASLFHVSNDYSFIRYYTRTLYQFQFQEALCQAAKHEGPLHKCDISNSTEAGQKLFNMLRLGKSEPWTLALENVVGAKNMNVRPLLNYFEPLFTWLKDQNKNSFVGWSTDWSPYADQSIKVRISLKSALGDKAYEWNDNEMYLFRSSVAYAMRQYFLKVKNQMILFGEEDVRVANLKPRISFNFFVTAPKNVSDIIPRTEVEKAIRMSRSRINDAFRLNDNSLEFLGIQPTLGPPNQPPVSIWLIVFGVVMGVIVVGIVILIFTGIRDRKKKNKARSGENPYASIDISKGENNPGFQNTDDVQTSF

Compound `C=C(C)[C@@H]1CCC(C)=C[C@H]1c1c(OCCCC)cc(CCCCC)cc1OCCCC` has an IC50 [1] of 0.17 µM.
In the case of `CCCCCc1cc(O)c([C@@H]2C=C(C)CC[C@H]2[C@@H](C)CCN2CCC(C)CC2)c(O)c1`, the IC50 [1] is reported as > 30 µM, the Activity [2] is reported as “Non-Toxic” and the IC50 [3] is reported as 6.5 µM.
For `CCCCCc1cc(OC(C)=O)c([C@@H]2C=C(C)CC[C@H]2[C@@H](C)CC=O)c(OC(C)=O)c1`, the IC50 [1] was 0.04 µM.
With `CCCCCc1cc(O)cc2c1C1CC(C)(C)CC(C)(C1)O2` (stereo unspecified) the IC50 [1] was 0.01 µM and the inhibition [4] was “Active”.
Compound `C=C(C)[C@@H]1CCC(C)=C[C@H]1c1c(OCC(=O)OCC)cc(CCCCC)cc1OCC(=O)OCC` has an IC50 [1] of 0.37 µM.
For `C=C(C)[C@@H]1CCC(C)=C[C@H]1c1c(O)cc(CCCCC)cc1O` [CANNABIDIOL], the IC50 [1] was > 30 µM, the Activity [2] was “Non-Toxic” and the IC50 [3] was 72.8 µM.
For `CCCCCc1cc(O)c([C@@H]2C=C(C)CC[C@H]2C(C)C)c(O)c1`, the IC50 [1] was 1.37 µM, the Activity [2] was “Non-Toxic” and the IC50 [3] was 1.9 µM.
For `C=C(C)[C@@H]1CC=C(C)C(c2c(O)cc(CCCCC)cc2O)C1` (stereo partly specified), the Activity [2] was “Non-Toxic” and the IC50 [3] was 6.3 µM.
In the case of `CCCCCc1cc(O)c(C2C=C(C)CC(C)(C)C2)c(O)c1` (stereo unspecified), the IC50 [1] is reported as 3.96 µM.
`CC(=O)NCC(=O)N[C@@H](CC(=O)O)C(=O)N[C@@H](Cc1ccc(O)cc1)C(=O)N[C@@H](CO)C(=O)N[C@@H](Cc1cnc[nH]1)C(=O)N[C@H]1CSSC[C@@H](C(=O)N[C@H](C(=O)N[C@@H](Cc2ccc(O)cc2)C(=O)N2CCC[C@H]2C(=O)N[C@@H](CC(=O)O)C(=O)N2CCC[C@H]2C(=O)N[C@@H](CCC(=O)O)C(=O)NCC(=O)NCC(=O)NCC(N)=O)[C@@H](C)O)NC(=O)[C@H](CCCCN)NC(=O)[C@H](Cc2c[nH]c3ccccc23)NC(=O)[C@H](Cc2c[nH]c3ccccc23)NC(=O)[C@@H]2CCCN2C(=O)[C@H](Cc2ccc(O)cc2)NC(=O)[C@H](Cc2ccc(O)cc2)NC(=O)[C@H](CCCNC(=N)N)NC(=O)[C@H](CC(C)C)NC(=O)[C@@H]2CCCN2C(=O)[C@H](CO)NC1=O` gave an IC50 [1] of 8.3 µM.
With `C=C(C)[C@@H]1CCC(C)=C[C@H]1c1c(OCC)cc(CCCCC)cc1OCC` the IC50 [1] was 0.18 µM, the Activity [2] was “Non-Toxic” and the IC50 [3] was 9.4 µM.
